Values quoted from earlier work, collected in PMC9998351 (Steroids, 2023).

Test system: CRPC CWR22Rv1 xenograft tumors
Settings: CWR22Rv1 xenograft; 2 at 7.53-fold lower equimolar dose than Gal; p < 0.01; ref [26]; cited from earlier work

Question: Which “Suppression of tumor growth” value does the source give for `C[C@]12CC[C@H](O)CC1=CC[C@@H]1[C@@H]2CC[C@]2(C)C(n3cnc4ccccc43)=CC[C@@H]12` [Gal, Galeterone, reference compound] here?
Answer: 47%
